According to the supplement of paper PMC10307832:

Columns and labels:
Assay in all cases: relative viability (nuclei count vs DMSO), 5 days (fraction); higher = more cells survive
Doramapimod + Trametinib = compound: Cc1ccc(-n2nc(C(C)(C)C)cc2NC(=O)Nc2ccc(OCCN3CCOCC3)c3ccccc23)cc1 [Doramapimod] + CC(=O)Nc1cccc(-n2c(=O)n(C3CC3)c(=O)c3c(Nc4ccc(I)cc4F)n(C)c(=O)c(C)c32)c1 [Trametinib] (partner 0.02 µM)
Method in brief: (§1)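 The day after seeding in 1536-well plates, lung cancer cell lines were treated by pin tool with a single drug, or with a fixed anchor-drug dose together with five library-drug doses (not always all listed) in √10 steps. After 5 days, a combined fix-and-stain solution (final 0.05% Triton X-100, 1% formaldehyde, 1 ug/ml Hoechst) was added. Nuclei counted on 4× images gave relative viability as treated counts over vehicle counts, reported as the median of duplicate plates.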

Doramapimod + Dasatinib = compound: Cc1ccc(-n2nc(C(C)(C)C)cc2NC(=O)Nc2ccc(OCCN3CCOCC3)c3ccccc23)cc1 [Doramapimod] + Cc1nc(Nc2ncc(C(=O)Nc3c(C)cccc3Cl)s2)cc(N2CCN(CCO)CC2)n1 [Dasatinib] (partner 0.075 µM)
Method in brief: as §1

IPA-3 + Lapatinib = compound: C1=CC=C2C(=C1)C=CC(=C2SSC3=C(C=CC4=CC=CC=C43)O)O [IPA-3] + CS(=O)(=O)CCNCc1ccc(-c2ccc3ncnc(Nc4ccc(OCc5cccc(F)c5)c(Cl)c4)c3c2)o1 [Lapatinib] (partner 2 µM)
Method in brief: as §1

Doramapimod + Lapatinib = compound: Cc1ccc(-n2nc(C(C)(C)C)cc2NC(=O)Nc2ccc(OCCN3CCOCC3)c3ccccc23)cc1 [Doramapimod] + CS(=O)(=O)CCNCc1ccc(-c2ccc3ncnc(Nc4ccc(OCc5cccc(F)c5)c(Cl)c4)c3c2)o1 [Lapatinib] (partner 2 µM)
Method in brief: as §1

NCI-H522
relative viability (Doramapimod + Trametinib; first compound 0.02 µM): 0.717 | relative viability (Doramapimod + Trametinib; first compound 0.06325 µM): 0.703 | relative viability (Doramapimod + Trametinib; first compound 0.2 µM): 0.799 | relative viability (Doramapimod + Trametinib; first compound 0.6325 µM): 0.727 | relative viability (Doramapimod + Trametinib; first compound 2 µM): 0.633 | relative viability (Doramapimod + Dasatinib; first compound 0.02 µM): 0.715 | relative viability (Doramapimod + Dasatinib; first compound 0.06325 µM): 0.851 | relative viability (Doramapimod + Dasatinib; first compound 0.2 µM): 0.863 | relative viability (Doramapimod + Dasatinib; first compound 0.6325 µM): 0.785 | relative viability (Doramapimod + Dasatinib; first compound 2 µM): 0.812

NCI-H1944
relative viability (IPA-3 + Lapatinib; first compound 0.2 µM): 0.803 | relative viability (IPA-3 + Lapatinib; first compound 0.6325 µM): 0.763 | relative viability (IPA-3 + Lapatinib; first compound 2 µM): 0.814 | relative viability (IPA-3 + Lapatinib; first compound 6.325 µM): 1.04 | relative viability (IPA-3 + Lapatinib; first compound 20 µM): 0.791 | relative viability (Doramapimod + Trametinib; first compound 0.02 µM): 0.387 | relative viability (Doramapimod + Trametinib; first compound 0.06325 µM): 0.343 | relative viability (Doramapimod + Trametinib; first compound 0.2 µM): 0.43 | relative viability (Doramapimod + Trametinib; first compound 0.6325 µM): 0.419 | relative viability (Doramapimod + Trametinib; first compound 2 µM): 0.396 | relative viability (Doramapimod + Lapatinib; first compound 0.02 µM): 0.761 | relative viability (Doramapimod + Lapatinib; first compound 0.06325 µM): 0.823 | relative viability (Doramapimod + Lapatinib; first compound 0.2 µM): 0.722 | relative viability (Doramapimod + Lapatinib; first compound 0.6325 µM): 0.963 | relative viability (Doramapimod + Lapatinib; first compound 2 µM): 0.585 | relative viability (Doramapimod + Dasatinib; first compound 0.02 µM): 0.213 | relative viability (Doramapimod + Dasatinib; first compound 0.06325 µM): 0.231 | relative viability (Doramapimod + Dasatinib; first compound 0.2 µM): 0.193 | relative viability (Doramapimod + Dasatinib; first compound 0.6325 µM): 0.232 | relative viability (Doramapimod + Dasatinib; first compound 2 µM): 0.216

NCI-H727
relative viability (IPA-3 + Lapatinib; first compound 0.2 µM): 1.15 | relative viability (IPA-3 + Lapatinib; first compound 0.6325 µM): 0.832 | relative viability (IPA-3 + Lapatinib; first compound 2 µM): 0.915 | relative viability (IPA-3 + Lapatinib; first compound 6.325 µM): 0.952 | relative viability (IPA-3 + Lapatinib; first compound 20 µM): 0.796 | relative viability (Doramapimod + Trametinib; first compound 0.02 µM): 0.389 | relative viability (Doramapimod + Trametinib; first compound 0.06325 µM): 0.395 | relative viability (Doramapimod + Trametinib; first compound 0.2 µM): 0.406 | relative viability (Doramapimod + Trametinib; first compound 0.6325 µM): 0.4 | relative viability (Doramapimod + Trametinib; first compound 2 µM): 0.32 | relative viability (Doramapimod + Lapatinib; first compound 0.02 µM): 0.969 | relative viability (Doramapimod + Lapatinib; first compound 0.06325 µM): 0.731 | relative viability (Doramapimod + Lapatinib; first compound 0.2 µM): 0.815 | relative viability (Doramapimod + Lapatinib; first compound 0.6325 µM): 0.778 | relative viability (Doramapimod + Lapatinib; first compound 2 µM): 0.933 | relative viability (Doramapimod + Dasatinib; first compound 0.02 µM): 0.352 | relative viability (Doramapimod + Dasatinib; first compound 0.06325 µM): 0.341 | relative viability (Doramapimod + Dasatinib; first compound 0.2 µM): 0.283 | relative viability (Doramapimod + Dasatinib; first compound 0.6325 µM): 0.353 | relative viability (Doramapimod + Dasatinib; first compound 2 µM): 0.388

NCI-H1650
relative viability (IPA-3 + Lapatinib; first compound 0.2 µM): 0.925 | relative viability (IPA-3 + Lapatinib; first compound 0.6325 µM): 0.176 | relative viability (IPA-3 + Lapatinib; first compound 2 µM): 0.802 | relative viability (IPA-3 + Lapatinib; first compound 6.325 µM): 0.893 | relative viability (IPA-3 + Lapatinib; first compound 20 µM): 0.774 | relative viability (Doramapimod + Trametinib; first compound 0.02 µM): 0.612 | relative viability (Doramapimod + Trametinib; first compound 0.06325 µM): 0.665 | relative viability (Doramapimod + Trametinib; first compound 0.2 µM): 0.734 | relative viability (Doramapimod + Trametinib; first compound 0.6325 µM): 0.763 | relative viability (Doramapimod + Trametinib; first compound 2 µM): 0.496 | relative viability (Doramapimod + Lapatinib; first compound 0.02 µM): 0.665 | relative viability (Doramapimod + Lapatinib; first compound 0.06325 µM): 0.736 | relative viability (Doramapimod + Lapatinib; first compound 0.2 µM): 0.795 | relative viability (Doramapimod + Lapatinib; first compound 0.6325 µM): 0.247 | relative viability (Doramapimod + Lapatinib; first compound 2 µM): 0.786 | relative viability (Doramapimod + Dasatinib; first compound 0.02 µM): 0.366 | relative viability (Doramapimod + Dasatinib; first compound 0.06325 µM): 0.294 | relative viability (Doramapimod + Dasatinib; first compound 0.2 µM): 0.338 | relative viability (Doramapimod + Dasatinib; first compound 0.6325 µM): 0.402 | relative viability (Doramapimod + Dasatinib; first compound 2 µM): 0.217

HCC-827
relative viability (IPA-3 + Lapatinib; first compound 0.2 µM): 0.216 | relative viability (IPA-3 + Lapatinib; first compound 0.6325 µM): 0.191 | relative viability (IPA-3 + Lapatinib; first compound 2 µM): 0.161 | relative viability (IPA-3 + Lapatinib; first compound 6.325 µM): 0.165 | relative viability (IPA-3 + Lapatinib; first compound 20 µM): 0.189 | relative viability (Doramapimod + Trametinib; first compound 0.02 µM): 0.571 | relative viability (Doramapimod + Trametinib; first compound 0.06325 µM): 0.408 | relative viability (Doramapimod + Trametinib; first compound 0.2 µM): 0.521 | relative viability (Doramapimod + Trametinib; first compound 0.6325 µM): 0.594 | relative viability (Doramapimod + Trametinib; first compound 2 µM): 0.405 | relative viability (Doramapimod + Lapatinib; first compound 0.02 µM): 0.2 | relative viability (Doramapimod + Lapatinib; first compound 0.06325 µM): 0.272 | relative viability (Doramapimod + Lapatinib; first compound 0.2 µM): 0.17 | relative viability (Doramapimod + Lapatinib; first compound 0.6325 µM): 0.352 | relative viability (Doramapimod + Lapatinib; first compound 2 µM): 0.201 | relative viability (Doramapimod + Dasatinib; first compound 0.02 µM): 0.272 | relative viability (Doramapimod + Dasatinib; first compound 0.06325 µM): 0.238 | relative viability (Doramapimod + Dasatinib; first compound 0.2 µM): 0.286 | relative viability (Doramapimod + Dasatinib; first compound 0.6325 µM): 0.355 | relative viability (Doramapimod + Dasatinib; first compound 2 µM): 0.142

HCC-366
relative viability (IPA-3 + Lapatinib; first compound 0.2 µM): 1.08 | relative viability (IPA-3 + Lapatinib; first compound 0.6325 µM): 1.05 | relative viability (IPA-3 + Lapatinib; first compound 2 µM): 1.09 | relative viability (IPA-3 + Lapatinib; first compound 6.325 µM): 1.09 | relative viability (IPA-3 + Lapatinib; first compound 20 µM): 1.18 | relative viability (Doramapimod + Trametinib; first compound 0.02 µM): 0.309 | relative viability (Doramapimod + Trametinib; first compound 0.06325 µM): 0.248 | relative viability (Doramapimod + Trametinib; first compound 0.2 µM): 0.259 | relative viability (Doramapimod + Trametinib; first compound 0.6325 µM): 0.263 | relative viability (Doramapimod + Trametinib; first compound 2 µM): 0.212 | relative viability (Doramapimod + Lapatinib; first compound 0.02 µM): 1.08 | relative viability (Doramapimod + Lapatinib; first compound 0.06325 µM): 1.08 | relative viability (Doramapimod + Lapatinib; first compound 0.2 µM): 1.14 | relative viability (Doramapimod + Lapatinib; first compound 0.6325 µM): 1.03 | relative viability (Doramapimod + Lapatinib; first compound 2 µM): 1.03 | relative viability (Doramapimod + Dasatinib; first compound 0.02 µM): 0.605 | relative viability (Doramapimod + Dasatinib; first compound 0.06325 µM): 0.549 | relative viability (Doramapimod + Dasatinib; first compound 0.2 µM): 0.548 | relative viability (Doramapimod + Dasatinib; first compound 0.6325 µM): 0.548 | relative viability (Doramapimod + Dasatinib; first compound 2 µM): 0.458

HARA
relative viability (IPA-3 + Lapatinib; first compound 0.2 µM): 0.764 | relative viability (IPA-3 + Lapatinib; first compound 0.6325 µM): 0.659 | relative viability (IPA-3 + Lapatinib; first compound 2 µM): 0.57 | relative viability (IPA-3 + Lapatinib; first compound 6.325 µM): 0.793 | relative viability (IPA-3 + Lapatinib; first compound 20 µM): 0.74 | relative viability (Doramapimod + Trametinib; first compound 0.02 µM): 0.634 | relative viability (Doramapimod + Trametinib; first compound 0.06325 µM): 0.414 | relative viability (Doramapimod + Trametinib; first compound 0.2 µM): 0.749 | relative viability (Doramapimod + Trametinib; first compound 0.6325 µM): 0.602 | relative viability (Doramapimod + Trametinib; first compound 2 µM): 0.5 | relative viability (Doramapimod + Lapatinib; first compound 0.02 µM): 0.606 | relative viability (Doramapimod + Lapatinib; first compound 0.06325 µM): 0.713 | relative viability (Doramapimod + Lapatinib; first compound 0.2 µM): 0.794 | relative viability (Doramapimod + Lapatinib; first compound 0.6325 µM): 0.968 | relative viability (Doramapimod + Lapatinib; first compound 2 µM): 0.637 | relative viability (Doramapimod + Dasatinib; first compound 0.02 µM): 0.194 | relative viability (Doramapimod + Dasatinib; first compound 0.06325 µM): 0.274 | relative viability (Doramapimod + Dasatinib; first compound 0.2 µM): 0.277 | relative viability (Doramapimod + Dasatinib; first compound 2 µM): 0.199

NCI-H322M
relative viability (IPA-3 + Lapatinib; first compound 0.2 µM): 0.566 | relative viability (IPA-3 + Lapatinib; first compound 0.6325 µM): 0.66 | relative viability (IPA-3 + Lapatinib; first compound 2 µM): 0.596 | relative viability (IPA-3 + Lapatinib; first compound 6.325 µM): 0.566 | relative viability (IPA-3 + Lapatinib; first compound 20 µM): 0.613 | relative viability (Doramapimod + Trametinib; first compound 0.02 µM): 0.429 | relative viability (Doramapimod + Trametinib; first compound 0.06325 µM): 0.519 | relative viability (Doramapimod + Trametinib; first compound 0.2 µM): 0.541 | relative viability (Doramapimod + Trametinib; first compound 0.6325 µM): 0.524 | relative viability (Doramapimod + Trametinib; first compound 2 µM): 0.498 | relative viability (Doramapimod + Lapatinib; first compound 0.02 µM): 0.59 | relative viability (Doramapimod + Lapatinib; first compound 0.06325 µM): 0.601 | relative viability (Doramapimod + Lapatinib; first compound 0.2 µM): 0.644 | relative viability (Doramapimod + Lapatinib; first compound 0.6325 µM): 0.798 | relative viability (Doramapimod + Lapatinib; first compound 2 µM): 0.605 | relative viability (Doramapimod + Dasatinib; first compound 0.02 µM): 0.276 | relative viability (Doramapimod + Dasatinib; first compound 0.06325 µM): 0.28 | relative viability (Doramapimod + Dasatinib; first compound 0.2 µM): 0.259 | relative viability (Doramapimod + Dasatinib; first compound 0.6325 µM): 0.262 | relative viability (Doramapimod + Dasatinib; first compound 2 µM): 0.24
